Experimental findings from patent publication US12209096B2, “Compounds and compositions for inducing chondrogenesis” (NOVARTIS AG, priority 2017, dated 2025) are described below.

The test system of this assay is NHACs. Briefly: calcium flux assay. It is filed as cell-based, human. Conditions: for Emax: read-out: (A) % Efficacy. The essentials: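 FLIPR fluorescence (ex 470–495 nm, em 515–575 nm) was read before and after compound dispense at the indicated dose. Chondrocytes (NHACs), 2000 cells/well, had been dye-loaded 24 h after plating with Calcium 5 in HBSS/HEPES plus 5 mM probenecid, 1 h, room temperature.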

Like-named read-outs stand apart in the source and are kept apart here. Bounds are passed on as bounds.

As usually defined, the EC50 is the concentration at which the effect is half-maximal. As for `O=C(Nc1cnc(Cl)c(Cl)c1)[C@H]1[C@@H]2O[C@@H]([C@H]3C[C@H]32)[C@@H]1c1ccncc1` [Example 136, (1S,2S,4R,5R,6R,7S)—N-(5,6-dichloropyridin-3-yl)-7-(pyridin-4-yl)-8-oxatricyclo[3.2.1.0^2,4]octane-6-carboxamide], under “Homo sapiens”, the 50% effective concentration (EC50) stood at 17 µM and the Emax is 254%.

`CO[C@H]1C[C@H]2O[C@@H]1[C@H](c1ccnc(C)c1)[C@H]2C(=O)Nc1ccc(Cl)c(Cl)c1` [Example 155, (1R,2R,3S,4R,5S)—N-(3,4-dichlorophenyl)-5-methoxy-3-(2-methylpyridin-4-yl)-7-oxabicyclo[2.2.1]heptane-2-carboxamide]: for the setting “Homo sapiens”, the 50% effective concentration (EC50) is 26 µM and the Emax came out at 262%.

Turning to `O=C(Nc1cccc(C(F)(F)F)c1)[C@@H]1[C@@H](c2ccncc2)[C@H]2O[C@@H]1C[C@@H]2O` [Example 88, (1R,2R,3S,4R,5S)-5-hydroxy-3-(pyridin-4-yl)-N-(3-(trifluoromethyl)phenyl)-7-oxabicyclo[2.2.1]heptane-2-carboxamide], under “Homo sapiens”, the EC50 is over 50 µM and the Emax is 27%.

As to `O=C(Nc1ccc(Cl)c(Cl)c1)[C@@H]1[C@H]2O[C@H]([C@@H]3C[C@@H]32)[C@H]1c1ccnc(F)c1F` (single isomer, unassigned) [Example 122b], for the setting “Homo sapiens”, the EC50 stood at 17 µM and the Emax came out at 217%.

Take `Cc1cc([C@H]2[C@H]3O[C@H]([C@@H]4C[C@@H]43)[C@H]2C(=O)Nc2cnc(Cl)c(Cl)c2)ccn1` (single isomer, unassigned) [Example 45]: under “Homo sapiens”, the EC50 stood at 14 µM and the Emax is 32%.

As for `O=C(Nc1cnc(Cl)c(Cl)c1)[C@@H]1[C@@H]2O[C@@H]([C@H]3C[C@H]32)[C@@H]1c1ccnc(F)c1F` [Example 32, (1S,2S,4R,5R,6S,7S)—N-(5,6-dichloropyridin-3-yl)-7-(2,3-difluoropyridin-4-yl)-8-oxatricyclo[3.2.1.0^2,4]octane-6-carboxamide], under “Homo sapiens”, the EC50 was determined as 13 µM and the Emax was determined as 143%.

With `O=C(Nc1ccc(Cl)c(Cl)c1)[C@H]1[C@@H](c2cncnc2)[C@H]2O[C@@H]1C[C@@H]2O` [Example 51, (1R,2S,3S,4R,5S)—N-(3,4-dichlorophenyl)-5-hydroxy-3-(pyrimidin-5-yl)-7-oxabicyclo[2.2.1]heptane-2-carboxamide], where the note is “Homo sapiens”, the EC50 is over 50 µM and the Emax came out at 0%.

Take `Cc1cc([C@H]2[C@H]3O[C@H](C[C@H]3F)[C@@H]2C(=O)Nc2cccc(OC(F)(F)F)c2)ccn1` [Example 99, (1R,2R,3S,4R,5R)-5-fluoro-3-(2-methylpyridin-4-yl)-N-(3-(trifluoromethoxy)phenyl)-7-oxabicyclo[2.2.1]heptane-2-carboxamide]: under “Homo sapiens”, the EC50 was 18 µM and the Emax was 383%.

Turning to `O=C(Nc1ccc(Cl)c(Cl)c1)[C@@H]1[C@@H](c2ccnc(C(F)(F)F)c2)[C@H]2O[C@@H]1C[C@@H]2O` (racemic) [Example 145, rac-(1R,2R,3S,4R,5S)—N-(3,4-dichlorophenyl)-5-hydroxy-3-(2-(trifluoromethyl)pyridin-4-yl)-7-oxabicyclo[2.2.1]heptane-2-carboxamide], under “Homo sapiens”, the EC50 stood at 17 µM and the Emax was 246%.

Regarding `COc1cc([C@H]2[C@H]3O[C@H]([C@@H]4C[C@@H]43)[C@@H]2C(=O)Nc2cnc(Cl)c(Cl)c2)ccn1` [Example 76, (1S,2S,4R,5R,6R,7S)—N-(5,6-dichloropyridin-3-yl)-7-(2-methoxypyridin-4-yl)-8-oxatricyclo[3.2.1.0^2,4]octane-6-carboxamide], under “Homo sapiens”, the half-maximal effective concentration (EC50) was 5.8 µM and the Emax was 123%.

On to `CN[C@@H]1C[C@H]2O[C@@H]1[C@H](c1ccnc(F)c1)[C@H]2C(=O)Nc1cnc(Cl)c(Cl)c1` [Example 174, (1R,2R,3S,4R,5R)—N-(5,6-dichloropyridin-3-yl)-3-(2-fluoropyridin-4-yl)-5-(methylamino)-7-oxabicyclo[2.2.1]heptane-2-carboxamide], for which, where the note is “Homo sapiens”, the EC50 was over 50 µM and the Emax stood at 37%.

`COc1ccc(NC(=O)[C@@H]2[C@@H]3O[C@@H]([C@H]4C[C@H]43)[C@@H]2c2ccc(C)nc2)cn1` [Example 31, (1S,2S,4R,5R,6S,7S)-N-(6-methoxypyridin-3-yl)-7-(6-methylpyridin-3-yl)-8-oxatricyclo[3.2.1.0^2,4]octane-6-carboxamide]: for the setting “Homo sapiens”, the EC50 was over 50 µM and the Emax turned out to be 0%.

For the molecule `Cc1ncc([C@H]2[C@H]3O[C@H]([C@@H]4C[C@@H]43)[C@H]2C(=O)Nc2ccc(Cl)c(Cl)c2)cn1` [Example 42, (1S,2S,4R,5R,6S,7S)—N-(3,4-dichlorophenyl)-7-(2-methylpyrimidin-5-yl)-8-oxatricyclo[3.2.1.0^2,4]octane-6-carboxamide], where the note is “Homo sapiens”, the concentration for a half-maximal effect (EC50) was 18 µM and the Emax worked out at 57%.

On to `Cc1cc([C@H]2[C@H]3O[C@H](C[C@H]3N[C@H]3C[C@H](O)C3)[C@@H]2C(=O)Nc2ccc(Cl)c(Cl)c2)ccn1` [Example 170, (1R,2R,3S,4R,5R)—N-(3,4-dichlorophenyl)-5-(((1r,3R)-3-hydroxycyclobutyl)amino)-3-(2-methylpyridin-4-yl)-7-oxabicyclo[2.2.1]heptane-2-carboxamide], for which, for the setting “Homo sapiens”, the concentration for a half-maximal effect (EC50) is over 50 µM and the Emax is 37%.

On to `O=C(Nc1ccc(Cl)c(Cl)c1)[C@@H]1[C@@H]2O[C@@H]([C@H]3C[C@H]32)[C@@H]1c1ccnc(F)c1` [Example 25, (1S,2S,4R,5R,6S,7S)-N-(3,4-dichlorophenyl)-7-(2-fluoropyridin-4-yl)-8-oxatricyclo[3.2.1.0^2,4]octane-6-carboxamide], for which, for the setting “Homo sapiens”, the EC50 was determined as 17 µM and the Emax was 52%.

With `CN[C@@H]1C[C@H]2O[C@@H]1[C@H](c1ccnc(C)c1)[C@H]2C(=O)Nc1ccc(Cl)c(Cl)c1` [Example 167, (1R,2R,3S,4R,5R)—N-(3,4-dichlorophenyl)-5-(methylamino)-3-(2-methylpyridin-4-yl)-7-oxabicyclo[2.2.1]heptane-2-carboxamide], where the note is “Homo sapiens”, the EC50 was determined as 6.9 µM and the Emax amounted to 83%.

Turning to `O=C(Nc1ccc(Cl)c(Cl)c1)[C@H]1[C@@H](c2ccnc(F)c2F)[C@H]2O[C@@H]1C[C@@H]2O` [Example 59, (1R,2S,3S,4R,5S)—N-(3,4-dichlorophenyl)-3-(2,3-difluoropyridin-4-yl)-5-hydroxy-7-oxabicyclo[2.2.1]heptane-2-carboxamide], under “Homo sapiens”, the EC50 came to 1.2 µM and the Emax is 254%.

On to `Cc1cc([C@@H]2[C@@H]3O[C@@H]([C@H]4C[C@H]43)[C@@H]2C(=O)Nc2cnc(Cl)c(Cl)c2)ccn1` (single isomer, unassigned) [Example 46], for which, under “Homo sapiens”, the EC50 is over 50 µM and the Emax came out at 0%.

For the molecule `O=C(Nc1ccc(Cl)c(Cl)c1)[C@@H]1[C@@H](c2ccnc(F)c2F)[C@H]2O[C@@H]1C[C@@H]2O` [Example 146, (1R,2R,3S,4R,5S)—N-(3,4-dichlorophenyl)-3-(2,3-difluoropyridin-4-yl)-5-hydroxy-7-oxabicyclo[2.2.1]heptane-2-carboxamide], for the setting “Homo sapiens”, the 50% effective concentration (EC50) is 20 µM and the Emax worked out at 150%.

As for `COc1ccc(NC(=O)[C@@H]2[C@@H]3O[C@@H]([C@H]4C[C@H]43)[C@@H]2c2ccc(C)nc2)cn1` (racemic) [Example 2, rac-(1S,2S,4R,5R,6S,7S)—N-(6-methoxypyridin-3-yl)-7-(6-methylpyridin-3-yl)-8-oxatricyclo[3.2.1.0^2,4]octane-6-carboxamide], under “Homo sapiens”, the EC50 turned out to be 0.3 µM and the Emax was found to be 45%.

Consider `O=C(Nc1cccc(C(F)(F)F)c1)[C@@H]1[C@@H]2O[C@@H]([C@H]3C[C@H]32)[C@@H]1c1cncnc1` [Example 37, (1S,2S,4R,5R,6S,7S)-7-(pyrimidin-5-yl)-N-(3-(trifluoromethyl)phenyl)-8-oxatricyclo[3.2.1.0^2,4]octane-6-carboxamide], for which, for the setting “Homo sapiens”, the EC50 was over 50 µM and the Emax was 26%.

Consider `Cc1cc([C@H]2[C@H]3O[C@H](C[C@@H]3F)[C@@H]2C(=O)Nc2cnc(Cl)c(Cl)c2)ccn1` [Example 109, (1R,2R,3S,4R,5S)—N-(5,6-dichloropyridin-3-yl)-5-fluoro-3-(2-methylpyridin-4-yl)-7-oxabicyclo[2.2.1]heptane-2-carboxamide], for which, under “Homo sapiens”, the EC50 came out at 28 µM and the Emax came out at 164%.

On to `O=C(Nc1ccc(Cl)c(Cl)c1)[C@@H]1[C@@H](c2cccc(C(F)(F)F)n2)[C@H]2O[C@@H]1C[C@@H]2O` [Example 140, (1R,2R,3S,4R,5S)—N-(3,4-dichlorophenyl)-5-hydroxy-3-(6-(trifluoromethyl)pyridin-2-yl)-7-oxabicyclo[2.2.1]heptane-2-carboxamide], for which, under “Homo sapiens”, the concentration giving a half-maximal response (EC50) came to 15 µM and the Emax stood at 292%.

For the molecule `Cc1cc([C@H]2[C@@H]3C[C@@H](O)C(O3)[C@H]2C(=O)Nc2cccc(C(F)(F)F)c2)ccn1` (stereo in doubt) [Example 9, (1R,2S,3S,4S,6R)-6-hydroxy-3-(2-methylpyridin-4-yl)-N-[3-(trifluoromethyl)phenyl]-7-oxabicyclo[2.2.1]heptane-2-carboxamide], under “Homo sapiens”, the EC50 was over 50 µM and the Emax is 0%.

Regarding `Cc1cc([C@H]2[C@H]3O[C@H]([C@@H]4C[C@@H]43)[C@@H]2C(=O)Nc2cccc(C(F)(F)F)c2)ccn1` (racemic) [Example 121, rac-(1S,2S,4R,5R,6R,7S)-7-(2-methylpyridin-4-yl)-N-(3-(trifluoromethyl)phenyl)-8-oxatricyclo[3.2.1.0^2,4]octane-6-carboxamide], for the setting “Homo sapiens”, the EC50 amounted to 26 µM and the Emax turned out to be 353%.

Turning to “(1R,2S,3S,4R,5S)-5-hydroxy-3-(pyridin-4-yl)-N-[3-(trifluoromethyl)phenyl]-7-oxabicyclo[2.2.1]heptane-2-carboxamide [Example 11]”, the “(A) % Efficacy” value was 27% and the EC50 is over 50 µM.

In the case of `Cc1cc([C@H]2[C@H]3O[C@H](C[C@@H]3F)[C@H]2C(=O)Nc2ccc(Cl)c(Cl)c2)ccn1` [Example 16, (1R,2S,3S,4R,5S)-N-(3,4-dichlorophenyl)-5-fluoro-3-(2-methylpyridin-4-yl)-7-oxabicyclo[2.2.1]heptane-2-carboxamide], under “Homo sapiens”, the EC50 was 21 µM and the Emax was 105%.
